Test [1] has as its target T1, human Nav1.8 (Homo sapiens, UniProt Q9Y5Y9). The test is described as follows: Sophion Qpatch II assay (automated patch clamp). The class given is cell-based. Conditions: resting state block (TP1 measurement), human Nav1.8 HEK293 cells, read-out: P1 IC50. The method, then: Compounds were tested on recombinant human Nav1.8/01 stably transfected HEK293 (Eurofins, CYL3025, St. Charles, MO) cells using the Qpatch II system (Sophion Bioscience A/S, Ballerup—Denmark), an automated patch clamp device. Cells were cultured at 37° C./5% CO2 in DMEM/F-12 supplemented with 10% fetal bovine serum, lx Non-Essential Amino Acids, and selection antibiotics (0.625 μg/mL Puromycin, 400 μg/mL Geneticin, and 100 μg/mL Hygromycin). One or two days prior to recording, cells were moved to a lower temperature 30° C./5% CO2 incubator to increase surface expression of the channels. On the day of the recordings, cells in culture dishes were washed twice with Ca^2+—Mg^2+ free DPBS and treated with Detachin (Genlantis, San Diego) for 3 minutes and then resuspended in Serum Free Medium (EX-CELL® ACF CHO Medium for Cell Culture (Sigma-Aldrich) supplemented with 0.04 mg/mL soybean trypsin Inhibitor and 25 mM HEPES (all components supplied by Sigma-Aldrich, St. Louis, MO) and allowed to recover for a minimum of 20 minutes in the onboard Qstirrer. All experiments were performed at ambient temperature. Intracellular solution contained (mM): CsCl, 50; CsF, 90; MgCl2, 2; EGTA, 5; HEPES, 10; pH adjusted to 7.2 with CsOH. Extracellular solution contained (mM): NaCl, 137; KCl, 4; CaCl2), 3.8; MgCl2, 1; HEPES, 10; Glucose, 10; pH adjusted to 7.4 with NaOH. 500 nM tetrodotoxin (TTX) was added to the extracellular solution to block endogenous TTX-sensitive sodium currents.
Compounds were tested in an interleaved manner across two cohorts of wells to develop an aggregate 8-point concentration response curve. Final concentrations include 0.5% DMSO and 0.03% pluronic Acid. The concentration range spanned a range from 0.01-300 nM. Compounds were diluted 1:10 with extracellular solution within their respective cohort. (R)-2-(4-fluoro-2-methylphenoxy)-N-(3-(S-methylsulfonimidoyl)phenyl)-5-(trifluoromethyl)nicotinamide served as a positive control while DMSO (0.5% by volume) served as a vehicle control to ascertain assay performance.
Whole cell patch clamp recordings were conducted according to Sophion standard procedure for Qpatch II®. Cells were held at a holding potential of −120 mV. A depolarizing step to 10 mV for 30 ms was applied (TP1 measurement), followed by a hyperpolarization step to −100 mV for 20 ms. Due to instability observed at long depolarized potentials, there were no second TP2 measurements attempted. Inter-sweep interval was 15 sec. Following establishment of the whole-cell configuration in extracellular solution, cells were washed twice in extracellular solution containing 0.5% DMSO and 0.03% pluronic acid to stabilize the baseline current. Compounds were then applied by the Qpatch II system into each well in an ascending manner within cohort and the current was recorded for five minutes for each concentration. Percent of current remaining was determined by taking the average of the last 5 sweeps within each concentration and normalizing to the latest pre-compound saline period. The potency of the compounds was assessed on resting state block (TP1 measurement) only to obtain IC50 values. Wells whose initial sodium current magnitude were below 2 nA or whole cell resistance fell below 100 MQ were excluded from analysis.
Examples 220 to 224, Examples 237 to 257 and Example 259 are assayed using Sophion Qpatch II assay described above.

Test [2] addresses T1, human Nav1.8. The test is described as follows: SyncroPatch384PE assay (automated patch clamp). The class given is cell-based. Particulars: human Nav1.8/b3 CHO cells. A general note: Patch clamp records ionic current or voltage across a cell membrane.
[3] abbreviates: inactivated state block (P2 measurement), read-out: P2 IC50.
[4] abbreviates: resting state block (P1 measurement), read-out: P1 IC50.

T1 sequence (Q9Y5Y9 whole entry): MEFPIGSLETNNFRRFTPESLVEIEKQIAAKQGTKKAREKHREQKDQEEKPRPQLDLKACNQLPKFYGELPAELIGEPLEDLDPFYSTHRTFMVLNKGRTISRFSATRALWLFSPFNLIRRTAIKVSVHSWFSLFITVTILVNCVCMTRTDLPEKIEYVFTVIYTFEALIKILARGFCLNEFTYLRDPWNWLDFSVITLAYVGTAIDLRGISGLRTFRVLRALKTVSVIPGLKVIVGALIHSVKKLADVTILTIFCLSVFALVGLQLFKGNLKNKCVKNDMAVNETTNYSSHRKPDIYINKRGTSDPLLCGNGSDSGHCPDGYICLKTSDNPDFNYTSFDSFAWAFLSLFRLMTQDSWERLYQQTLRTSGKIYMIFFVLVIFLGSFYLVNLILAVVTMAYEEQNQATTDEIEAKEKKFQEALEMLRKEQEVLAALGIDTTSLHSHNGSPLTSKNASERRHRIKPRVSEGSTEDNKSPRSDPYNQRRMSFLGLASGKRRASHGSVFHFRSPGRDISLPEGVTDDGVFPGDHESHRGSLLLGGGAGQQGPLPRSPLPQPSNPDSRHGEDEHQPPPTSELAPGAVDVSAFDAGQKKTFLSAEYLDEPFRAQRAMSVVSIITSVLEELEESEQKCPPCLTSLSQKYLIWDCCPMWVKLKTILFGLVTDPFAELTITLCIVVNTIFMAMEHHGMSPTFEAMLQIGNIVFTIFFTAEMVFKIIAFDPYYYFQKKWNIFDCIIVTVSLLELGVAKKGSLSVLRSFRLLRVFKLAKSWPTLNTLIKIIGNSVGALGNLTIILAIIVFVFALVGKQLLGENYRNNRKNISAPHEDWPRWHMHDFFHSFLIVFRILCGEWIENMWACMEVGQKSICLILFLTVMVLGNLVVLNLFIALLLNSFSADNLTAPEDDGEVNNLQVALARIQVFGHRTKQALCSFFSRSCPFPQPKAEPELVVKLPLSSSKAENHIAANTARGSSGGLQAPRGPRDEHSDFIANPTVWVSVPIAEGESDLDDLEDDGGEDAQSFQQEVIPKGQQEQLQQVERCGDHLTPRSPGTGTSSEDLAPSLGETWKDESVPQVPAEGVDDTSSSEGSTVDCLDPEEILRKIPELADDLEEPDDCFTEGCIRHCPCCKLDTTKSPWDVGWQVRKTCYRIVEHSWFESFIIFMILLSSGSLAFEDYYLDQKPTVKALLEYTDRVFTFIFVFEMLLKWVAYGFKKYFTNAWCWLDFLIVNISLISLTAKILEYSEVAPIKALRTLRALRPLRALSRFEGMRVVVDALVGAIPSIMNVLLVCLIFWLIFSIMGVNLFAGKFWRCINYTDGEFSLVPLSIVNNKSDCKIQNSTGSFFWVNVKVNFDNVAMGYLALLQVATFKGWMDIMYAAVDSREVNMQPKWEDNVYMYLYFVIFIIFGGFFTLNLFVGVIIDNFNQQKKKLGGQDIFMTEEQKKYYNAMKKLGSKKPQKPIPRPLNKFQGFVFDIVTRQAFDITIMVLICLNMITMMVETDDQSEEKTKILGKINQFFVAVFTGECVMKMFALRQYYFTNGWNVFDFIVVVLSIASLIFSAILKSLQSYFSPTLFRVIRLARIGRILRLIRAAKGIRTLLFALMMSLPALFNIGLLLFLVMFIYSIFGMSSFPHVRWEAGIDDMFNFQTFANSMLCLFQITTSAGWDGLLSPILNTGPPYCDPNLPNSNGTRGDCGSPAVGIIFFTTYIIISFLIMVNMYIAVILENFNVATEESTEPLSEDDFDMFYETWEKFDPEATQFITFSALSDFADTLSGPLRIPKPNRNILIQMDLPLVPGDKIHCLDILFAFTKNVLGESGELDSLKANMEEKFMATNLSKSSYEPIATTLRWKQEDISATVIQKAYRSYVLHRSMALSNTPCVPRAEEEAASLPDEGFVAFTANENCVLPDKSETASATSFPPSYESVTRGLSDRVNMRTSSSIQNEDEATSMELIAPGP

As to `Cc1c(C(F)(F)F)cnc(N2CCCC(F)(F)CC2)c1C(=O)N[C@H]1C[C@H](C(N)=O)C1` [Example 257, N-((trans)-3-carbamoylcyclobutyl)-2-(4,4-difluoroazepan-1-yl)-4-methyl-5-(trifluoromethyl)nicotinamide], the concentration for half-maximal inhibition (IC50) at human Nav1.8 [1] fell in the range of 50 to 100 nM.
With `Cc1c(C(=O)Nc2ccnc([S@](C)(=N)=O)c2)c(N2CCCC(F)(F)CC2)nc(C2CC2)c1C(F)(F)F` [Example 220, (R)-6-cyclopropyl-2-(4,4-difluoroazepan-1-yl)-4-methyl-N-(2-(S-methylsulfonimidoyl)pyridin-4-yl)-5-(trifluoromethyl)nicotinamide], the half-maximal inhibitory concentration (IC50) at human Nav1.8 [1] fell in the range of 5 to 50 nM.
For `C[S@](=N)(=O)c1cc(NC(=O)c2cc(Cl)c(C(F)(F)F)cc2N2CCC(C(F)(F)F)CC2)ccn1` [Example 244, (S)-5-chloro-N-(2-(S-methylsulfonimidoyl)pyridin-4-yl)-4-(trifluoromethyl)-2-(4-(trifluoromethyl)piperidin-1-yl)benzamide], the 50% inhibitory concentration (IC50) at human Nav1.8 [1] is 50 to 100 nM.
With `Cc1c(C(F)(F)F)cnc(N2CCCC(F)(F)CC2)c1C(=O)N[C@H]1C[C@H](C(=O)O)C1` [Example 256, (trans)-3-(2-(4,4-difluoroazepan-1-yl)-4-methyl-5-(trifluoromethyl)nicotinamido)cyclobutane-1-carboxylic acid], the half-inhibitory concentration (IC50) at human Nav1.8 [1] was in the range of 50 to 100 nM.
Still for that read-out and setting: to `C[S@@](=N)(=O)c1cc(NC(=O)c2cc(Cl)c(C(F)(F)F)cc2N2CCC(C(F)(F)F)CC2)ccc1F` [Example 245, (R)-5-chloro-N-(4-fluoro-3-(S-methylsulfonimidoyl)phenyl)-4-(trifluoromethyl)-2-(4-(trifluoromethyl)piperidin-1-yl)benzamide] belongs 5 to 50 nM; to `C[S@](=N)(=O)c1cccc(NC(=O)c2cc(Cl)c(C(F)(F)F)cc2N2CCC(F)(F)CC2)c1` [Example 255, (S)-5-chloro-2-(4,4-difluoropiperidin-1-yl)-N-(3-(S-methylsulfonimidoyl)phenyl)-4-(trifluoromethyl)benzamide], 5 to 50 nM.
Turning to `Cc1ccc(-c2cnc(N3CCCC(F)(F)CC3)c(C(=O)Nc3cccc(S(C)(=N)=O)c3)c2C)cc1` (stereo not drawn) [Example 96, 2-(4,4-difluoroazepan-1-yl)-4-methyl-N-(3-(S-methylsulfonimidoyl)phenyl)-5-(p-tolyl)nicotinamide], the IC50 on human Nav1.8 [2] (setting [3]) and on human Nav1.8 [2] (setting [4]) was at most 5 nM in each case.
Regarding `Cc1cc(C#N)nc(N2CCCC(F)(F)CC2)c1C(=O)Nc1cccc([S@](C)(=N)=O)c1` [Example 148, (R)-6-cyano-2-(4,4-difluoroazepan-1-yl)-4-methyl-N-(3-(S-methylsulfonimidoyl)phenyl)nicotinamide], the half-inhibitory concentration (IC50) at human Nav1.8 [2] (setting [3]) and at human Nav1.8 [2] (setting [4]) was 5 to 50 nM in each case.
Take `C[S@@](=N)(=O)c1cccc(NC(=O)c2c(N3CCCC(F)(F)CC3)ncc(Cl)c2F)c1` [Example 226, (R)-5-chloro-2-(4,4-difluoroazepan-1-yl)-4-fluoro-N-(3-(S-methylsulfonimidoyl)phenyl)nicotinamide]: the IC50 on human Nav1.8 [2] (setting [3]) and on human Nav1.8 [2] (setting [4]) was at most 5 nM each time.
As to `CNS(=N)(=O)c1cc(NC(=O)c2cc(C(F)(F)F)c(C)nc2N2CCCC(F)(F)CC2)ccn1` (stereo not drawn) [Example 107, 2-(4,4-difluoroazepan-1-yl)-6-methyl-N-(2-(N-methylsulfamidimidoyl)pyridine-4-yl)-5-(trifluoromethyl)nicotinamide], the IC50 at human Nav1.8 [2] (setting [3]) and on human Nav1.8 [2] (setting [4]) was at most 5 nM throughout.
`Cc1c(C#N)c(C(F)(F)F)nc(N2CCCC(F)(F)CC2)c1C(=O)Nc1cccc([S@@](C)(=O)=NC(=O)C2(N)CC2)c1` [Example 66, (R)-N-(3-(N-(1-aminocyclopropane-1-carbonyl)-S-methylsulfonimidoyl)phenyl)-5-cyano-2-(4,4-difluoroazepan-1-yl)-4-methyl-6-(trifluoromethyl)nicotinamide]: the concentration for half-maximal inhibition (IC50) at human Nav1.8 [2] (setting [3]) and on human Nav1.8 [2] (setting [4]) was at most 5 nM in each case.
For the compound `Cc1cc(C(F)(F)F)nc(N2CCCC(F)(F)CC2)c1C(=O)Nc1cccc([S@](C)(=N)=O)c1` [Example 33, (R)-2-(4,4-Difluoroazepan-1-yl)-4-methyl-N-(3-(S-methylsulfonimidoyl)phenyl)-6-(trifluoromethyl)nicotinamide], the IC50 on human Nav1.8 [2] (setting [3]) and at human Nav1.8 [2] (setting [4]) was at most 5 nM in each case.
In the case of `Cc1c(-c2cc(F)cc(F)c2)cnc(N2CCCC(F)(F)CC2)c1C(=O)Nc1cccc([S@](C)(=N)=O)c1` [Example 61, (R)-2-(4,4-difluoroazepan-1-yl)-5-(3,5-difluorophenyl)-4-methyl-N-(3-(S-methylsulfonimidoyl)phenyl)nicotinamide], the 50% inhibitory concentration (IC50) on human Nav1.8 [2] (setting [3]) and at human Nav1.8 [2] (setting [4]) was at most 5 nM in each case.
Consider `Cc1c(C(F)(F)F)nnc(N2CCCC(F)(F)CC2)c1C(=O)Nc1cccc([S@@](C)(=O)=NC(=O)[C@H](C)O)c1` [Example 233, 3-(4,4-difluoroazepan-1-yl)-N-(3-((R)-N-((S)-2-hydroxypropanoyl)-S-methylsulfonimidoyl)phenyl)-5-methyl-6-(trifluoromethyl)pyridazine-4-carboxamide], for which the half-maximal inhibitory concentration (IC50) on human Nav1.8 [2] (setting [3]) and at human Nav1.8 [2] (setting [4]) was at most 5 nM throughout.
Take `Cc1c(-c2cnn(C)c2)ccc(N2CCCC(F)(F)CC2)c1C(=O)Nc1cccc([S@](C)(=N)=O)c1` [Example 78, (R)-6-(4,4-difluoroazepan-1-yl)-2-methyl-3-(1-methyl-1H-pyrazol-4-yl)-N-(3-(S-methylsulfonimidoyl)phenyl)benzamide]: the IC50 on human Nav1.8 [2] (setting [3]) and on human Nav1.8 [2] (setting [4]) was over 200 nM each time.
Consider `Cc1c(C#CCN(C)C)cnc(N2CCCC(F)(F)CC2)c1C(=O)Nc1cccc([S@](C)(=N)=O)c1` [Example 124, (R)-2-(4,4-difluoroazepan-1-yl)-5-(3-(dimethylamino)prop-1-yn-1-yl)-4-methyl-N-(3-(S-methylsulfonimidoyl)phenyl)nicotinamide], for which the IC50 at human Nav1.8 [2] (setting [3]) and at human Nav1.8 [2] (setting [4]) was 100 to 200 nM each time.
On to `Cc1c(-c2ccc(C#N)cc2)cnc(N2CCCC(F)(F)CC2)c1C(=O)Nc1cccc(S(C)(=N)=O)c1` (stereo not drawn) [Example 81], for which the half-inhibitory concentration (IC50) at human Nav1.8 [2] (setting [3]) and at human Nav1.8 [2] (setting [4]) was at most 5 nM in each case.
`Cc1c(C(F)(F)F)nnc(N2CCC3(CC2)CC3)c1C(=O)Nc1cccc(S(C)(=N)=O)c1` (stereo not drawn) [Example 94, 5-methyl-N-(3-(S-methylsulfonimidoyl)phenyl)-3-(6-azaspiro[2.5]octan-6-yl)-6-(trifluoromethyl)pyridazine-4-carboxamide]: the IC50 on human Nav1.8 [2] (setting [3]) and at human Nav1.8 [2] (setting [4]) was over 200 nM throughout.
As for `C[S@@](=N)(=O)c1cc(NC(=O)c2cc(Cl)c(C(F)(F)F)cc2N2CCO[C@@H](C(F)(F)F)C2)ccn1` [Example 217, 5-chloro-N-(2-((R)—S-methylsulfonimidoyl)pyridin-4-yl)-4-(trifluoromethyl)-2-((R)-2-(trifluoromethyl)morpholino)benzamide], the IC50 on human Nav1.8 [2] (setting [3]) and at human Nav1.8 [2] (setting [4]) was 50 to 100 nM in each case.
For `Cc1c(C(F)(F)F)nnc(N2CCCC(F)(F)CC2)c1C(=O)Nc1cccc([S@@](C)(=O)=NC(=O)[C@@H](C)O)c1` [Example 179, 3-(4,4-difluoroazepan-1-yl)-N-(3-((R)-N-((R)-2-hydroxypropanoyl)-S-methylsulfonimidoyl)phenyl)-5-methyl-6-(trifluoromethyl)pyridazine-4-carboxamide], the 50% inhibitory concentration (IC50) on human Nav1.8 [2] (setting [3]) and on human Nav1.8 [2] (setting [4]) was at most 5 nM each time.
For `C[S@](=N)(=O)c1cccc(NC(=O)c2cc(C(F)(F)F)nnc2N2CCCC(F)(F)CC2)c1` [Example 19, (S)-3-(4,4-difluoroazepan-1-yl)-N-(3-(S-methylsulfonimidoyl)phenyl)-6-(trifluoromethyl)pyridazine-4-carboxamide], the half-inhibitory concentration (IC50) on human Nav1.8 [2] (setting [3]) is 100 to 200 nM; at human Nav1.8 [2] (setting [4]), over 200 nM.

Broadly, the IC50 is the concentration that inhibits the measured activity by half.

For the origin of these results see patent US20250154109A1, “SODIUM CHANNEL BLOCKING COMPOUNDS, DERIVATIVES THEREOF, AND METHODS OF THEIR USE” (LATIGO BIOTHERAPEUTICS, INC, priority 2022, published 2025).
